Measurements from patent publication US12240853B2, “Compounds useful in HIV therapy” (GlaxoSmithKline Intellectual Property (No.2) Limited, priority 2019, dated 2025).
Read-outs that look alike come from different tables or passages of the source.

Experiment: Example 18 cynomolgus monkey PK study (SC and IM)
Type: in vivo, cynomolgus monkeys
Source text: Example 18 referenced herein was made in accordance with Synthesis B. Six male cynomolgus monkeys (+1 spare) were selected from the Testing Facility's colony of non-naïve animals. The animals were assigned to the study based on acceptable health as determined by a Testing Facility veterinarian. Six animals were selected and placed into two groups of three animals each. Fasting of the animals before or after dosing was not required.
[…] […] The animals were manually restrained for dosing and were not sedated. The dose sites were clipped of hair and wiped with alcohol before dosing. All dosing was performed as detailed in the study protocol and was completed without incident.
Blood samples were collected from the study animals as detailed in the sample collection Table 39 below.
Blood samples were collected by venipuncture of a cephalic vein. For PK, blood was transferred to a blood collection tube containing NaF/Na2EDTA anticoagulant, mixed by inversion, and maintained on wet ice until processing. The blood samples were centrifuged at 2200×g for 10 minutes at 5° C. to isolate plasma. The resulting plasma samples were transferred to individual polypropylene tubes in a 96-well plate format and immediately placed on dry ice until storage at nominally −20° C. prior to shipment for analysis.
The PK plasma samples were analyzed approximately every two weeks by the Testing Facility to determine the concentration of Example 18 (prodrug) and parent using an LC-MS/MS Research Grade Assay (RGA-1) with sensitivity to 0.1 ng/mL. Following interim review of sample analysis data, analysis for Example 18 (prodrug) was discontinued after the Day 57 sample collections. The bioanalytical report and sample concentration data are presented in Tables 40 and 41, and mean concentration-time profiles are shown in FIGS. 29 and 30

C#C[C@]1(COC(=O)CCCCCCCCC)O[C@@H](n2cnc3c(N)nc(F)nc32)C[C@@H]1OC(=O)CCCCCCCCC [Example 18, (2R,3S,5R)-5-(6-amino-2-fluoro-9H-purin-9-yl)-2-((decanoyloxy)methyl)-2-ethynyltetrahydrofuran-3-yl Decanoate]
Example 18 plasma concentrations (IM EFdA, Monkey 2001, 43 days): BQL (BQL—Below Quantitation Limit, <0.100 ng/mL)
Example 18 plasma concentrations (IM EFdA, Monkey 2001, 57 days): BQL (BQL—Below Quantitation Limit, <0.100 ng/mL)
EFdA plasma concentrations (IM EFdA, Monkey 2002, 0.021 days): BQL (BQL—Below Quantitation Limit, <0.100 ng/mL)
Example 18 plasma concentrations (IM EFdA, Monkey 2002, 36 days): BQL (BQL—Below Quantitation Limit, <0.100 ng/mL)
Example 18 plasma concentrations (IM EFdA, Monkey 2002, 39 days): BQL (BQL—Below Quantitation Limit, <0.100 ng/mL)
Example 18 plasma concentrations (IM EFdA, Monkey 2002, 46 days): BQL (BQL—Below Quantitation Limit, <0.100 ng/mL)
Example 18 plasma concentrations (IM EFdA, Monkey 2002, 50 days): BQL (BQL—Below Quantitation Limit, <0.100 ng/mL)
Example 18 plasma concentrations (IM EFdA, Monkey 2003, 29 days): BQL (BQL—Below Quantitation Limit, <0.100 ng/mL)
Example 18 plasma concentrations (IM EFdA, Monkey 2003, 53 days): BQL (BQL—Below Quantitation Limit, <0.100 ng/mL)
Example 18 plasma concentrations (IM equivalent of EFdA, Monkey 2001, 25 days): BQL (BQL—Below Quantitation Limit, <0.100 ng/mL)
Example 18 plasma concentrations (IM equivalent of EFdA, Monkey 2001, 32 days): BQL (BQL—Below Quantitation Limit, <0.100 ng/mL)
Example 18 plasma concentrations (IM equivalent of EFdA, Monkey 2001, 39 days): BQL (BQL—Below Quantitation Limit, <0.100 ng/mL)
Example 18 plasma concentrations (IM equivalent of EFdA, Monkey 2001, 53 days): BQL (BQL—Below Quantitation Limit, <0.100 ng/mL)
Example 18 plasma concentrations (IM equivalent of EFdA, Monkey 2002, 32 days): BQL (BQL—Below Quantitation Limit, <0.100 ng/mL)
Example 18 plasma concentrations (IM equivalent of EFdA, Monkey 2002, 57 days): BQL (BQL—Below Quantitation Limit, <0.100 ng/mL)
EFdA plasma concentrations (IM equivalent of EFdA, Monkey 2003, 0.021 days): BQL (BQL—Below Quantitation Limit, <0.100 ng/mL)
Example 18 plasma concentrations (IM equivalent of EFdA, Monkey 2003, 32 days): BQL (BQL—Below Quantitation Limit, <0.100 ng/mL)
Example 18 plasma concentrations (IM equivalent of EFdA, Monkey 2003, 39 days): BQL (BQL—Below Quantitation Limit, <0.100 ng/mL)
Example 18 plasma concentrations (IM equivalent of EFdA, Monkey 2003, 50 days): BQL (BQL—Below Quantitation Limit, <0.100 ng/mL)
Example 18 plasma concentrations (IM equivalent of EFdA, Monkey 2003, 57 days): BQL (BQL—Below Quantitation Limit, <0.100 ng/mL)
Example 18 plasma concentrations (IM, Monkey 2001, 36 days): BQL (BQL—Below Quantitation Limit, <0.100 ng/mL)
Example 18 plasma concentrations (IM, Monkey 2001, 46 days): BQL (BQL—Below Quantitation Limit, <0.100 ng/mL)
Example 18 plasma concentrations (IM, Monkey 2001, 50 days): BQL (BQL—Below Quantitation Limit, <0.100 ng/mL)
Example 18 plasma concentrations (IM, Monkey 2002, 43 days): BQL (BQL—Below Quantitation Limit, <0.100 ng/mL)
Example 18 plasma concentrations (IM, Monkey 2002, 53 days): BQL (BQL—Below Quantitation Limit, <0.100 ng/mL)
Example 18 plasma concentrations (IM, Monkey 2003, 36 days): BQL (BQL—Below Quantitation Limit, <0.100 ng/mL)
Example 18 plasma concentrations (IM, Monkey 2003, 43 days): BQL (BQL—Below Quantitation Limit, <0.100 ng/mL)
Example 18 plasma concentrations (SC EFdA, Monkey 1001, 22 days): BQL (BQL—Below Quantitation Limit, <0.100 ng/mL)
Example 18 plasma concentrations (SC EFdA, Monkey 1001, 29 days): BQL (BQL—Below Quantitation Limit, <0.100 ng/mL)
Example 18 plasma concentrations (SC EFdA, Monkey 1001, 43 days): BQL (BQL—Below Quantitation Limit, <0.100 ng/mL)
Example 18 plasma concentrations (SC EFdA, Monkey 1001, 46 days): BQL (BQL—Below Quantitation Limit, <0.100 ng/mL)
Example 18 plasma concentrations (SC EFdA, Monkey 1001, 53 days): BQL (BQL—Below Quantitation Limit, <0.100 ng/mL)
EFdA plasma concentrations (SC EFdA, Monkey 1002, 0.021 days): BQL (BQL—Below Quantitation Limit, <0.100 ng/mL)
Example 18 plasma concentrations (SC EFdA, Monkey 1002, 29 days): BQL (BQL—Below Quantitation Limit, <0.100 ng/mL)
Example 18 plasma concentrations (SC EFdA, Monkey 1002, 43 days): BQL (BQL—Below Quantitation Limit, <0.100 ng/mL)
Example 18 plasma concentrations (SC equivalent of EFdA, Monkey 1001, 8 days): BQL (BQL—Below Quantitation Limit, <0.100 ng/mL)
Example 18 plasma concentrations (SC equivalent of EFdA, Monkey 1001, 17 days): BQL (BQL—Below Quantitation Limit, <0.100 ng/mL)
Example 18 plasma concentrations (SC equivalent of EFdA, Monkey 1001, 19 days): BQL (BQL—Below Quantitation Limit, <0.100 ng/mL)
Example 18 plasma concentrations (SC equivalent of EFdA, Monkey 1001, 32 days): BQL (BQL—Below Quantitation Limit, <0.100 ng/mL)
Example 18 plasma concentrations (SC equivalent of EFdA, Monkey 1001, 36 days): BQL (BQL—Below Quantitation Limit, <0.100 ng/mL)
Example 18 plasma concentrations (SC equivalent of EFdA, Monkey 1001, 39 days): BQL (BQL—Below Quantitation Limit, <0.100 ng/mL)
Example 18 plasma concentrations (SC equivalent of EFdA, Monkey 1001, 50 days): BQL (BQL—Below Quantitation Limit, <0.100 ng/mL)
EFdA plasma concentrations (SC equivalent of EFdA, Monkey 1002, 0.042 days): BQL (BQL—Below Quantitation Limit, <0.100 ng/mL)
Example 18 plasma concentrations (SC equivalent of EFdA, Monkey 1002, 22 days): BQL (BQL—Below Quantitation Limit, <0.100 ng/mL)
Example 18 plasma concentrations (SC equivalent of EFdA, Monkey 1002, 32 days): BQL (BQL—Below Quantitation Limit, <0.100 ng/mL)
Example 18 plasma concentrations (SC equivalent of EFdA, Monkey 1002, 39 days): BQL (BQL—Below Quantitation Limit, <0.100 ng/mL)
Example 18 plasma concentrations (SC equivalent of EFdA, Monkey 1002, 50 days): BQL (BQL—Below Quantitation Limit, <0.100 ng/mL)
Example 18 plasma concentrations (SC equivalent of EFdA, Monkey 1002, 53 days): BQL (BQL—Below Quantitation Limit, <0.100 ng/mL)
Example 18 plasma concentrations (SC equivalent of EFdA, Monkey 1002, 57 days): BQL (BQL—Below Quantitation Limit, <0.100 ng/mL)
EFdA plasma concentrations (SC equivalent of EFdA, Monkey 1003, 0.021 days): BQL (BQL—Below Quantitation Limit, <0.100 ng/mL)
EFdA plasma concentrations (SC, Mean, 0.021 days): BQL (BQL—Below Quantitation Limit, <0.100 ng/mL)
Example 18 plasma concentrations (SC, Mean, 17 days): BQL (BQL—Below Quantitation Limit, <0.100 ng/mL)
EFdA plasma concentrations (SC, Monkey 1001, 0.021 days): BQL (BQL—Below Quantitation Limit, <0.100 ng/mL)
Example 18 plasma concentrations (SC, Monkey 1001, 25 days): BQL (BQL—Below Quantitation Limit, <0.100 ng/mL)
Example 18 plasma concentrations (SC, Monkey 1001, 57 days): BQL (BQL—Below Quantitation Limit, <0.100 ng/mL)
Example 18 plasma concentrations (SC, Monkey 1002, 17 days): BQL (BQL—Below Quantitation Limit, <0.100 ng/mL)
Example 18 plasma concentrations (SC, Monkey 1002, 19 days): BQL (BQL—Below Quantitation Limit, <0.100 ng/mL)
Example 18 plasma concentrations (SC, Monkey 1002, 25 days): BQL (BQL—Below Quantitation Limit, <0.100 ng/mL)
Example 18 plasma concentrations (SC, Monkey 1002, 36 days): BQL (BQL—Below Quantitation Limit, <0.100 ng/mL)
Example 18 plasma concentrations (SC, Monkey 1002, 46 days): BQL (BQL—Below Quantitation Limit, <0.100 ng/mL)
EFdA plasma concentrations (SC, Monkey 1003, 0.042 days): BQL (BQL—Below Quantitation Limit, <0.100 ng/mL)
Clinical observations and dose site reactions (cynomolgus monkey, single SC or IM injection, 5 mg parent/kg): All animals appeared normal at the time of each observation and no dose site reactions were observed
concentration at 0.021 days (male, cynomolgus monkey, plasma, intramuscular, 20 mg/kg equivalent of EFdA, IM 20 mg/kg equivalent of EFdA, Mean, 0.021 days, read-out: Example 18 plasma concentrations): 11.9 ng/mL
concentration at 0.042 days (male, cynomolgus monkey, plasma, intramuscular, 20 mg/kg equivalent of EFdA, IM 20 mg/kg equivalent of EFdA, Mean, 0.042 days, read-out: Example 18 plasma concentrations): 15 ng/mL
concentration at 0.125 days (male, cynomolgus monkey, plasma, intramuscular, 20 mg/kg equivalent of EFdA, IM 20 mg/kg equivalent of EFdA, Mean, read-out: Example 18 plasma concentrations): 28.5 ng/mL
concentration at 0.208 days (male, cynomolgus monkey, plasma, intramuscular, 20 mg/kg equivalent of EFdA, IM 20 mg/kg equivalent of EFdA, Mean, 0.208 days, read-out: Example 18 plasma concentrations): 28.3 ng/mL
concentration at 0.292 days (male, cynomolgus monkey, plasma, intramuscular, 20 mg/kg equivalent of EFdA, IM 20 mg/kg equivalent of EFdA, Mean, 0.292 days, read-out: Example 18 plasma concentrations): 18.3 ng/mL
concentration at 1 days (male, cynomolgus monkey, plasma, intramuscular, 20 mg/kg equivalent of EFdA, IM 20 mg/kg equivalent of EFdA, Mean, 1 days, read-out: Example 18 plasma concentrations): 4.49 ng/mL
concentration at 2 days (male, cynomolgus monkey, plasma, intramuscular, 20 mg/kg equivalent of EFdA, IM 20 mg/kg equivalent of EFdA, Mean, 2 days, read-out: Example 18 plasma concentrations): 0.52 ng/mL
concentration at 3 days (male, cynomolgus monkey, plasma, intramuscular, 20 mg/kg equivalent of EFdA, IM 20 mg/kg equivalent of EFdA, Mean, 3 days, read-out: Example 18 plasma concentrations): 0.505 ng/mL
concentration at 8 days (male, cynomolgus monkey, plasma, intramuscular, 20 mg/kg equivalent of EFdA, IM 20 mg/kg equivalent of EFdA, Mean, 8 days, read-out: Example 18 plasma concentrations): 0.187 ng/mL
concentration at 10 days (male, cynomolgus monkey, plasma, intramuscular, 20 mg/kg equivalent of EFdA, IM 20 mg/kg equivalent of EFdA, Mean, 10 days, read-out: Example 18 plasma concentrations): 0.173 ng/mL
concentration at 17 days (male, cynomolgus monkey, plasma, intramuscular, 20 mg/kg equivalent of EFdA, IM 20 mg/kg equivalent of EFdA, Mean, 17 days, read-out: Example 18 plasma concentrations): 0.145 ng/mL
concentration at 19 days (male, cynomolgus monkey, plasma, intramuscular, 20 mg/kg equivalent of EFdA, IM 20 mg/kg equivalent of EFdA, Mean, 19 days, read-out: Example 18 plasma concentrations): 0.124 ng/mL
concentration at 22 days (male, cynomolgus monkey, plasma, intramuscular, 20 mg/kg equivalent of EFdA, IM 20 mg/kg equivalent of EFdA, Mean, 22 days, read-out: Example 18 plasma concentrations): 0.13 ng/mL
concentration at 25 days (male, cynomolgus monkey, plasma, intramuscular, 20 mg/kg equivalent of EFdA, IM 20 mg/kg equivalent of EFdA, Mean, 25 days, read-out: Example 18 plasma concentrations): 0.151 ng/mL
concentration at 0.021 days (male, cynomolgus monkey, plasma, intramuscular, 20 mg/kg equivalent of EFdA, IM 20 mg/kg equivalent of EFdA, Monkey 2001, 0.021 days, read-out: Example 18 plasma concentrations): 21.8 ng/mL
concentration at 0.042 days (male, cynomolgus monkey, plasma, intramuscular, 20 mg/kg equivalent of EFdA, IM 20 mg/kg equivalent of EFdA, Monkey 2001, 0.042 days, read-out: Example 18 plasma concentrations): 29.2 ng/mL
concentration at 0.125 days (male, cynomolgus monkey, plasma, intramuscular, 20 mg/kg equivalent of EFdA, IM 20 mg/kg equivalent of EFdA, Monkey 2001, read-out: Example 18 plasma concentrations): 53.7 ng/mL
